Activity calls are given as the source filed them.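 The calls were made as follows: active = EC50 no more than a set limit of log units above the highest dose; inactive = the rest.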
Biological target: S. pyogenes SKKanGAS, kanamycin survival, BacTiterGlo, 6 h
Experiment: SKKanGAS survival reduction under kanamycin, dose response, streptokinase promoter inhibitor project, SKKanGAS strain, luminescence, dose confirmation (AID 1902);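 also: lower survival reflects blocked streptokinase promoter driving kanamycin resistance gene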

| SMILES | EC50 |
| --- | --- |
| COCCNC(=O)c1c(NC(=O)c2ccc(Br)o2)n(Cc2ccccc2)c2nc3ccccc3nc12 | 2.44 µM |
| NS(=O)(=O)c1ccc(N2N=C(c3ccc(Br)cc3)CC2c2ccc(F)cc2)cc1 (stereo not drawn) | 2.21 µM |
| COc1ccc(O)c(C(=O)CC(=O)c2ccccc2C)c1 | 4.76 µM |
| Cc1cc(Cl)ccc1NC(=S)NCCC(c1ccccc1)c1ccccc1 | 11.1 µM |
| C=CCn1c(O)c(C(CC)=Nc2ccc(N(C)C)cc2)c(=O)[nH]c1=O | 3.05 µM |
| CC(NS(=O)(=O)/C=C/c1ccccc1)C(=O)O (stereo not drawn) | > 15 µM (inactive) |
| CC1(C)CC[C@]2(C(=O)O)CC[C@]3(C)C(=CCC4[C@@]5(C)CC[C@H](O)C(C)(C)C5CC[C@]43C)C2C1 (stereo partly drawn) | 2.69 µM |
| Cc1ccc(-c2nc3cc(NS(=O)(=O)c4ccc(C)cc4)ccc3o2)cc1 | 6.28 µM |
| CCCCOC(=O)c1ccc(NC(=S)N2CCN(c3ncc4c(=O)c(C(=O)O)cn(CC)c4n3)CC2)cc1 | 2.04 µM |
| O=C(CSc1nnc(-c2ccc3c(c2)OCO3)o1)Nc1ncc(C(F)(F)F)cc1Cl | 0.856 µM |
| CC(C)Nc1nc(Oc2cccc(Cl)c2Cl)cc(C(F)(F)F)n1 | 5.29 µM |
| Nc1ncc(Br)cc1S(=O)(=O)Nc1cc(C(F)(F)F)cc(C(F)(F)F)c1 | 6.39 µM |
| CO/N=C(/C(=O)N[C@@H]1C(=O)N2C(C(=O)O)=CCS[C@H]12)c1cnc(N)s1 | < 0.06 µM |
| COC12C(COC(N)=O)C3=C(C(=O)C(C)=C(N)C3=O)N1CC1C2N1C (stereo not drawn) | < 0.06 µM |
| CSc1ccccc1-c1n[nH]c(=S)o1 | > 5 µM (inactive) |
| COc1cc(OC)cc(C(=O)Nc2nc3ccccc3[nH]2)c1 | 12.8 µM |
| CC(Oc1ccc(Cl)cc1Cl)c1nc(-c2ccc(NC(=O)c3ccco3)cc2)no1 (stereo not drawn) | 5.82 µM |
| CC(C)(C)c1ccc(OCC(=O)NNC(=S)NC(=O)c2ccco2)c(Br)c1 | < 0.06 µM |
| COc1cc(C(=O)NNC(=S)NC(=O)c2ccccc2C)cc(OC)c1OC | 1.88 µM |
| O=[N+]([O-])c1cc(Cl)c(O)c2ncccc12 | 0.782 µM |
| Clc1ccc(C2=CSC3=Nc4cccc5cccc(c45)N23)cc1 | 7.43 µM |
| CCCCCCc1cc2cc(C(=O)OCC)c(=O)oc2cc1O | 5.46 µM |

| SMILES | EC50 |
| --- | --- |
| CC1=NN(C(N)=S)C(=O)C1N=Nc1c(Br)cc(Br)cc1Br (stereo not drawn) | 2.78 µM |
| CN1CCN(C(=O)C(=O)c2cn(CC(=O)N3CCCC3)c3ccccc23)CC1 | > 15 µM (inactive) |
| Cc1ccc(/C=C/C(=O)C2C(=O)c3ccccc3C2=O)cc1 | 1.62 µM |
| CC(C)[C@H](NC(=O)N1CC(=O)Nc2ccccc21)C(=O)N[C@@H](Cc1ccccc1)C(=O)O | > 15 µM (inactive) |
| O=c1c2c(nc3c(-c4ccc(Cl)cc4)c[nH]n13)CCC2 | 3.38 µM |
| Cc1nn(CC(=O)Nc2c(F)c(F)cc(F)c2F)c(=O)c2cccn12 | > 15 µM (inactive) |
| CCc1ccc(/C=C/C(=O)c2cc(Br)ccc(=O)c2O)cc1 | 0.417 µM |
| COc1ccc(C(=O)NC(=S)NNC(=O)[C@H]2C[C@@H]2c2ccccc2)cc1OC | 0.914 µM |
| CCCOC(=O)c1ccc(Oc2cn[nH]c2-c2ccc(OCC)cc2O)cc1 | 1.37 µM |
| CCOC(=O)c1cccc(N2C(N)=NC(N)=NC2(C)C)c1 | 0.109 µM |
| CN1CCN(C2=Cc3ccc(Cl)cc3Sc3ccc(F)cc32)CC1 | 4.61 µM |
| Clc1ccc(/C=N/NC(=Nc2ccccc2)c2ccccn2)c(Cl)c1 | 13.5 µM |
| CCn1c(=O)n(CC)c2cc(N3CCCC3)c(NC(=O)c3cc(Br)ccc3OC)cc21 | 4.28 µM |
| Cc1nnc(SC(C(=O)Nc2cc(Cl)cc(Cl)c2)c2ccccc2)[nH]c1=O (stereo not drawn) | 10.6 µM |
| O=C(/C=C/c1cccc(Cl)c1)c1ccc([N+](=O)[O-])o1 | 2.23 µM |
| Cc1nn(C)c(C(=O)Nc2ccc(S(=O)(=O)NC34CC5CC(CC(C5)C3)C4)cc2)c1Br | 4.9 µM |
| Oc1c(C(Nc2ccccn2)c2ccccn2)ccc2cccnc12 (stereo not drawn) | 10.7 µM |
| FC(F)(F)c1cccc(CNC2c3ccccc3-c3ccccc32)c1 | 6.57 µM |
| O=[N+]([O-])c1ccc(Cl)cc1Sc1nc2ccccc2o1 | 1.67 µM |
| COc1ccc(Br)cc1/C=C/c1ccc2cccc(O)c2n1 | 0.138 µM |
| Cc1cc(C)c2c(n1)sc1c(=O)n(CC(=O)c3ccccc3)cnc12 | 1.55 µM |
| Cc1ccn2c(Nc3ccccc3C)c(-c3ccccn3)nc2c1 | 2.19 µM |

| SMILES | EC50 |
| --- | --- |
| O=S(=O)(Nc1ccc(-n2cccc2)cc1)c1ccc(Cl)c(Cl)c1 | 6.21 µM |
| Cc1c(C(=O)Nc2ccc(Oc3ccccc3)cc2)sc2nc3n(c(=O)c12)CCC3 | 6.21 µM |
| COC(=O)C1(C(C[N+](=O)[O-])c2ccc(C)cc2)C(=O)NCC1c1ccco1 (stereo not drawn) | 7.39 µM |
| COc1ccccc1C(=O)NNC(=O)C(=O)Nc1cccc(Cl)c1C | 3.44 µM |
| Nc1nc2ccccc2n1/N=C/c1ccc(-c2ccccc2)o1 | 1.96 µM |
| COc1cc(NS(=O)(=O)c2ccc3ccccc3c2)c2ncccc2c1 | 1.08 µM |
| Cc1cccc(Cn2nc(-n3cccc3)c3c(C)cc(C)nc32)c1 | 6.78 µM |
| CC(=O)c1ccc(NC(=S)Nc2ccc(Br)c(Cl)c2)cc1 | 6.2 µM |
| C/C(=N\NC(=O)c1cccc(Br)c1)c1ccccn1 | 0.74 µM |
| Cc1cc(NC(=O)CN2C(=O)c3ccccc3C2=O)no1 | > 15 µM (inactive) |
| CCCC(=O)NC(c1ccc(C(C)C)cc1)c1ccc2cccnc2c1O (stereo not drawn) | 5.54 µM |
| COc1ccccc1N1CCN(C(=O)/C=C/c2ccc(C)cc2)CC1 | > 15 µM (inactive) |
| Oc1c(Cl)cc(Cl)c2c1NCCC2 | 5.37 µM |
| O=c1oc2ccccc2c(O)c1C(c1ccc([N+](=O)[O-])cc1)c1c(O)c2ccccc2oc1=O | 6.3 µM |
| CN(Cc1cnc2nc(N)nc(N)c2n1)c1ccc(C(=O)N[C@@H](CCC(=O)O)C(=O)O)cc1 | 0.61 µM |
| Oc1c(Br)cc(Br)cc1Oc1ccc(Br)cc1Br | 1.77 µM |
| Cc1ccc(S(=O)(=O)/N=C2\C=C(Nc3cccc(C(=O)O)c3)C(=O)c3ccccc32)cc1 | 2.43 µM |
| CC(=O)NC(c1ccccc1)c1cc(Cl)c2cccnc2c1O (stereo not drawn) | 1.17 µM |
| CCc1nc(SCC(=O)Nc2ccccc2OC)c2c(C)c(C)sc2n1 | 6.58 µM |
| Cc1ccc(C2C(C(=O)c3cc4ccccc4o3)=C(O)C(=O)N2c2cc(C)on2)cc1 (stereo not drawn) | 2.1 µM |
| O=C(CN(c1cccc(Br)c1)S(=O)(=O)c1ccccc1)N/N=C/c1cc([N+](=O)[O-])ccc1O | 0.441 µM |
| COc1ccc(Cl)cc1NC(=O)CN1CCC(n2nnc3cc(C)ccc32)CC1 | 10.8 µM |

| SMILES | EC50 |
| --- | --- |
| COc1ccc(NS(=O)(=O)c2ccc3ccccc3c2)c2ncccc12 | 1.2 µM |
| Cc1cc2oc(=O)cc(CN(C)Cc3ccccc3)c2cc1C(C)C | 4.52 µM |
| O=C(CN(c1ccc(Cl)c(C(F)(F)F)c1)S(=O)(=O)c1ccccc1)N/N=C/c1cccc2c1OCCO2 | 13.4 µM |
| O[C@@H]1CCCN2CCc3c([nH]c4ccccc34)[C@H]12 | > 15 µM (inactive) |
| Cc1cccc(C)c1OC(=O)C(c1ccccc1)c1ccccc1 | 3.17 µM |
| CCCCNC(=O)c1sc(=S)n2c1[nH]c(=O)c1ccccc12 | 9.08 µM |
| CCCCCCCCCCCCC(NC(C)=O)(C(=O)OCC)C(=O)OCC | 6.05 µM |
| O=C(Nc1nnc(-c2ccc(Cl)cc2)o1)c1nc2ccccc2s1 | 0.178 µM |
| O=C(Nc1cccc(-c2nnc(-c3ccccc3)o2)c1)c1ccc(Br)o1 | 8.48 µM |
| O=C(N/N=C/c1cc([N+](=O)[O-])ccc1O)c1cccc(N2CCCC2=O)c1 | 1.21 µM |
| O=[N+]([O-])c1cc(S(=O)(=O)Nc2ccccc2)ccc1N1CCN(c2ccccc2)CC1 | 7.21 µM |
| c1ccc(/N=C2\N=C(Nc3ccccn3)c3ccccc32)nc1 | 2.44 µM |
| N#Cc1nc(-c2ccc(OCc3ccccc3Cl)cc2)oc1NCCCn1ccnc1 | 3.27 µM |
| COc1cc(/C=N\NC(=O)c2ccc(Cn3cc(Br)c([N+](=O)[O-])n3)o2)cc(OC)c1O | 4.97 µM |
| O=Cc1cc(N=Nc2ccccc2Cl)ccc1O | 2.96 µM |
| Nc1nc(CN2CCN(c3ccccc3)CC2)nc(N2CCCc3ccccc32)n1 | 0.879 µM |
| CC(/C=C/C=C/c1ccccc1)=N/NC(=O)c1ccc2c(c1)OCCO2 | > 15 µM (inactive) |
| CCN(CC)S(=O)(=O)c1cccc(C(=O)Nc2nc3cc4c(cc3s2)OCCO4)c1 | 0.976 µM |
| CC(C)c1c(C(=O)N/N=C/c2cccc(OCc3ccccc3)c2)nnn1-c1nonc1N | 9.4 µM |
| Nc1nc(CN2CCC(Cc3ccccc3)CC2)nc(Nc2ccccc2)n1 | 1.95 µM |
| COc1ccc(/C=N/NC(=O)Cc2csc(Nc3cccc(C(F)(F)F)c3)n2)cc1C | 3.95 µM |
| Cc1ccc(C(=O)CC(=O)c2ccccc2C)c(O)c1 | 5.18 µM |

| SMILES | EC50 |
| --- | --- |
| CNC(=O)c1c(NC(=O)c2ccc(N3C(=O)CCC3=O)cc2)sc2c1CCC(C)C2 (stereo not drawn) | 15.7 µM |
| COc1ccc(-c2oc3ncn(Cc4ccco4)c(=N)c3c2-c2ccc(OC)cc2)cc1 | 4.76 µM |
| CCOC(=O)c1cc(-c2ccc(OC(F)F)cc2)nc2c1c(=O)[nH]c(=O)n2C | 0.392 µM |
| CC(C)(O)c1ccccc1CC[C@@H](SCC1(CC(=O)O)CC1)c1cccc(/C=C/c2ccc3ccc(Cl)cc3n2)c1 | 1.44 µM |
| COc1ccc(C(=O)c2c(C(F)(F)F)oc3c2C(=O)c2ccccc2C3=O)cc1OC | 0.746 µM |
| O=[N+]([O-])c1ccc(O)c(-c2nc(-c3ccccc3)c(-c3cccs3)[nH]2)c1 | 0.979 µM |
| COc1ccccc1-c1cc(-c2ccccc2)nc(SCC(=O)O)c1C#N | 1.97 µM |
| O=C(CSc1nnc(NC(=O)c2ccccc2[N+](=O)[O-])s1)NC1CCCC1 | > 15 µM (inactive) |
| O=c1[nH]c(NNC(=S)NCc2ccccc2)nc2c1C1(CCCCC1)Cc1ccccc1-2 | 1.33 µM |
| COc1cc(Cl)cc(/C=C/c2ccc3cccc(O)c3n2)c1OC | 0.951 µM |
| Cc1cccc(/C=N/NC(=O)Cc2ccc(Cl)cc2)c1O | 3.53 µM |
| S=c1[nH]nc(-c2cc3c(s2)-c2ccccc2CC3)o1 | 3.87 µM |
| O=C(CSc1nc2ccccc2c(=O)n1NC(=O)c1ccccc1)c1ccc(Cl)cc1 | 11.3 µM |
| O=C(NC(=S)NNC(=O)c1ccccc1O)c1ccccc1 | 2.35 µM |
| Cc1cc(COC(=O)C2N3C(=O)[C@@H](NC(=O)COc4ccccc4)[C@H]3SC2(C)C)on1 (stereo partly drawn) | 0.119 µM |
| O=C1CN(/N=C/c2ccc([N+](=O)[O-])o2)C(=O)N1 | 5.83 µM |
| CCOC(=O)C(=NC(C)(C)C)NNc1cc(Cl)ccc1Cl | 2.9 µM |
| Cc1cc(/C=C2\SC(=S)NC2=O)c(C)n1-c1cccc(O)c1 | 3.06 µM |
| COc1cccc2sc(Nc3nnc(-c4ccc(F)cc4)o3)nc12 | 0.546 µM |
| O=C1/C(=N\S(=O)(=O)c2cccs2)C([n+]2cccc(Cc3ccccc3)c2)=C([O-])c2ccccc21 | 1.68 µM |

— PubChem BioAssay AID1902 (Broad Institute, 2009)
